In paper PMC8552062, “Contributions of UDP-Glucuronosyltransferases to Human Hepatic and Intestinal Metabolism of Ticagrelor and Inhibition of UGTs and Cytochrome P450 Enzymes by Ticagrelor and its Glucuronidated Metabolite” (Frontiers in Pharmacology, 2021):
pIC50: −log10 of the molar value.

Molecular target: T1, CYP2B6 (Homo sapiens, UniProt P20813)
T1 construct: co-incubation ticagrelor-O-Glu with selective P450 probe substrates in HLM; tissue XenoTech LLC; host or cells: pooled human liver microsomes
T1 sequence (P20813 1-491): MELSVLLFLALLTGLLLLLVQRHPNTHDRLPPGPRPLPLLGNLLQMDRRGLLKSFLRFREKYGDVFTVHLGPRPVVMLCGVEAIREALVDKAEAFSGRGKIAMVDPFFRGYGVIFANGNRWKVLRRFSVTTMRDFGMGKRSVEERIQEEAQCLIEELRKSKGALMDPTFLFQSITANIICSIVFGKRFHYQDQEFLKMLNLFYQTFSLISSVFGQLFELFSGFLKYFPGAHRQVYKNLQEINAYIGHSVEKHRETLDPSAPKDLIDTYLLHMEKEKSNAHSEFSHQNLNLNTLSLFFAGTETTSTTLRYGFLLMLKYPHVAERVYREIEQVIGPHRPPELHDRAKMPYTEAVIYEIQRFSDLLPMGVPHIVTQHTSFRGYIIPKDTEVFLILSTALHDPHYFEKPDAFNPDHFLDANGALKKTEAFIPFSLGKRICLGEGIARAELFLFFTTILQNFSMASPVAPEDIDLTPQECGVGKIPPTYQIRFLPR
Test: CYP2B6 inhibition in HLM (bupropion hydroxylase)
Type: in vitro ADME
Method: The potential inhibitory effects of ticagrelor-O-Glu on the activities of major CYPs, i.e., CYP2B6, CYP2C8, CYP2C9, CYP2C19, CYP2D6, and CYP3A4, were evaluated by co-incubation ticagrelor-O-Glu with selective P450 probe substrates in HLM. Each incubation mixture containing 0.2 mg/ml HLM, ticagrelor-O-Glu and respective substrate (the final substrate concentrations are close to or less than the Km values: 150 μM bupropion, 1.26 μM amodiaquine, 10 μM diclofenac, 20 μM mephenytoin, 20 μM dextromethorphan and 80 μM testosterone (in house data)) in potassium phosphate buffer (100 mM, pH 7.4) was pre-incubated at 37°C for 5 min. Then, NADPH (10 mM) was added to initiate the reaction. The final volume of the incubation mixture was 100 μl. After incubation at 37°C for specific time points, the reaction was terminated by the addition of 200 μl of ice-cold methanol solution with internal standards (diazepam and furafylline). Preliminary screening experiments with selected concentrations of ticagrelor-O-Glu (0, 1, 10, or 100 μM of the final concentration) were carried out to determine the inhibition potency. For those that produced approximately 50% inhibition of CYPs enzyme activities at a ticagrelor-O-Glu concentration between 1 and 100 μM, IC50 was further determined with various concentrations of ticagrelor-O-Glu (0, 1, 5, 10, 20, 50, and 100 μM). All the experiments were performed in triplicates. The supernatant was obtained after centrifugation at 14,000 rpm for 10 min and injected into LC-MS/MS for the analysis of the respective metabolites. The formation of respective metabolites was determined to reflect P450 isoform activities. The metabolites quantified for CYP2B6, CYP2C8, CYP2C9, CYP2C19, CYP2D6, and CYP3A4 were hydroxy bupropion, N-Desethyl amodiaquine, 4′-hydroxylation diclofenac, S-4-hydroxy mephenytoin, dextrorphan and 6β-hydroxy testosterone, respectively.
The percent inhibition relative to the control was calculated to indicate the UGTs or CYPs inhibition. […]

CCCSc1nc(N[C@@H]2C[C@H]2c2ccc(F)c(F)c2)c2nnn([C@@H]3C[C@H](OCCO[C@@H]4O[C@H](C(=O)O)[C@@H](O)[C@H](O)[C@H]4O)[C@@H](O)[C@H]3O)c2n1 [Ticagrelor-O-Glu, ticagrelor-O-glucuronide]
pIC50 (CYP2B6, bupropion hydroxylase, HLM 0.2 mg/ml): 4.35 | inhibition at 10 μM (human, human liver microsomes, pH 7.4, probe bupropion (150 μM), hydroxy bupropion formation, HLM, 10 μM ticagrelor-O-Glu): 19.1% | inhibition at 100 µM (human, human liver microsomes, pH 7.4, probe bupropion (150 μM), hydroxy bupropion formation, HLM, 100 μM ticagrelor-O-Glu): 77.9%
